Data: ChEMBL document CHEMBL5608189, “Design and synthesis of unique indole-benzosulfonamide oleanolic acid derivatives as potent antibacterial agents against MRSA” (Eur J Med Chem, 2024)
Converted amounts (≈) assume the structure as drawn. The source made the active and inactive calls. The calls are words filed in the database; no cut-off is given here.

How the values were obtained:
Staphylococcus aureus [1] = experiment: Antibacterial activity against Staphylococcus aureus ATCC 6538 measured after 24 hrs by susceptibility assay; assay type: functional
[2] = tested on: Staphylococcus epidermidis; experiment: Antibacterial activity against Staphylococcus epidermidis ATCC 12228 measured after 24 hrs by susceptibility assay; assay type: functional
Staphylococcus aureus [3] = experiment: Antibacterial activity against methicillin-resistant Staphylococcus aureus measured after 24 hrs by susceptibility assay; assay type: functional
Staphylococcus aureus [4] = experiment: Antibacterial activity against Staphylococcus aureus ATCC 29213 measured after 24 hrs by susceptibility assay; assay type: functional
Staphylococcus aureus [5] = experiment: Bactericidal activity against Staphylococcus aureus ATCC 6538 measured after 24 hrs; assay type: functional
Staphylococcus aureus [6] = experiment: Bactericidal activity against Staphylococcus aureus ATCC 29213 measured after 24 hrs; assay type: functional
[7] = tested on: Staphylococcus epidermidis; experiment: Bactericidal activity against Staphylococcus epidermidis ATCC 12228 measured after 24 hrs; assay type: functional
Staphylococcus aureus [8] = experiment: Bactericidal activity against methicillin-resistant Staphylococcus aureus measured after 24 hrs; assay type: functional
[9] = tested on: Staphylococcus epidermidis; experiment: Antibacterial activity against Staphylococcus epidermidis ATCC 12228 assessed as inhibition of bacterial growth at 1 times MIC measured every 2 hrs for 24 hrs by time kill assay; assay type: functional, organism-based
Staphylococcus aureus [10] = experiment: Antibacterial activity against methicillin-resistant Staphylococcus aureus assessed as inhibition of bacterial growth at 1 times MIC measured every 2 hrs for 24 hrs by time kill assay; assay type: functional, organism-based
[11] = tested on: Staphylococcus epidermidis; experiment: Antibacterial activity against Staphylococcus epidermidis ATCC 12228 assessed as delay in bacterial growth at 0.5 times MIC measured every 2 hrs for 24 hrs by time kill assay; assay type: functional, organism-based
Staphylococcus aureus [12] = experiment: Antibacterial activity against methicillin-resistant Staphylococcus aureus assessed as delay in bacterial growth at 0.5 times MIC measured every 2 hrs for 24 hrs by time kill assay; assay type: functional, organism-based
Staphylococcus aureus [13] = experiment: Antibacterial activity against Staphylococcus aureus ATCC 6538 assessed as inhibition of bacterial growth at 2 to 4 times MIC measured every 2 hrs for 24 hrs by time kill assay relative to control; assay type: functional
[14] = tested on: Staphylococcus epidermidis; experiment: Antibacterial activity against Staphylococcus epidermidis ATCC 12228 assessed as inhibition of bacterial growth at 2 to 4 times MIC measured every 2 hrs for 24 hrs by time kill assay relative to control; assay type: functional
[15] = Hemolytic activity in rabbit red blood cells assessed as hemolytic rate at 128 times MIC measured after 1 hr by absorbance based method relative to control; assay type: toxicity, cell-based, Oryctolagus cuniculus, Erythrocyte; details: rabbit red blood cells (erythrocytes), read-out: Activity
Staphylococcus aureus [16] = experiment: Resistant development in methicillin-resistant Staphylococcus aureus assessed as increase in MIC at sub-MIC measured after 20 passages; assay type: functional, organism-based
Staphylococcus aureus [17] = experiment: Antibiofilm activity in methicillin-resistant Staphylococcus aureus assessed as inhibition of biofilm formation at 16 times MIC measured after 24 hrs by crystal violet staining based analysis relative to control; assay type: functional
Staphylococcus aureus [18] = experiment: Antibiofilm activity in methicillin-resistant Staphylococcus aureus assessed as eradication of formed biofilm by measuring reduction in biofilm mass at 1 times MIC measured after 24 hrs by crystal violet staining based analysis relative to control; assay type: functional; design: scale not given: the % may be the effect or the level left
Staphylococcus aureus [19] = experiment: Antibacterial activity against methicillin-resistant Staphylococcus aureus assessed as reduction in metabolic activity at 1 to 8 times MIC measured after 24 hrs by alamar blue assay; assay type: functional, organism-based
Staphylococcus aureus [20] = experiment: Antibacterial activity against methicillin-resistant Staphylococcus aureus assessed as reduction in metabolic activity at 8 times MIC measured after 24 hrs by alamar blue assay relative to control; assay type: functional; design: scale not given: the % may be the effect or the level left
Staphylococcus aureus [21] = experiment: Induction of morphological changes in methicillin-resistant Staphylococcus aureus assessed as disruption of cell membrane integrity at 8 times MIC incubated for 8 hrs by SEM analysis; assay type: functional, organism-based
Cell membrane [22] = experiment: Disruption of cell membrane integrity in methicillin-resistant Staphylococcus aureus assessed as rupture of cell membrane at 8 times MIC incubated for 8 hrs by TEM analysis; assay type: cell membranes
Cell membrane [23] = experiment: Disruption of cell membrane integrity in methicillin-resistant Staphylococcus aureus assessed as leakage of cellular content at 8 times MIC incubated for 8 hrs by TEM analysis; assay type: cell membranes
Cell membrane [24] = experiment: Induction of cell membrane damage in methicillin-resistant Staphylococcus aureus assessed as increase in red fluorescence in PI channel at 8 times MIC incubated for 4 hrs by Calcein-AM/PI staining based confocal microscopic analysis; assay type: cell membranes
Cell membrane [25] = experiment: Induction of cell membrane in methicillin-resistant Staphylococcus aureus assessed as increase in fluorescence intensity by measuring number of PI-permeable cells at 2 times MIC measured after 2 hrs by PI staining based flow cytometry analysis (reference value: 5.71); assay type: cell membranes
Cell membrane [26] = experiment: Induction of cell membrane in methicillin-resistant Staphylococcus aureus assessed as increase in fluorescence intensity by measuring number of PI-permeable cells at 4 times MIC measured after 2 hrs by PI staining based flow cytometry analysis (reference value: 5.71); assay type: cell membranes
Cell membrane [27] = experiment: Induction of cell membrane in methicillin-resistant Staphylococcus aureus assessed as increase in fluorescence intensity by measuring number of PI-permeable cells at 8 times MIC measured after 2 hrs by PI staining based flow cytometry analysis (reference value: 5.71); assay type: cell membranes
NIH3T3 = experiment: Cytotoxicity against mouse NIH3T3 cells assessed as reduction in cell viability upto 64 times MIC incubated for 24 hrs by CCK-8 assay; assay type: toxicity, cell-based; details: nih3t3, 24 h
HEK-293T = experiment: Cytotoxicity against HEK293T cells assessed as reduction in cell viability upto 64 times MIC incubated for 24 hrs by CCK-8 assay; assay type: toxicity, cell-based; details: human
Staphylococcus aureus [28] = experiment: Antibacterial activity against methicillin-resistant Staphylococcus aureus infected in female C57BL/6 mouse wound model assessed as log reduction in viable bacterial count at 10 mg/kg administered twice on wounds with 6 hrs interval and measured for 7 days; assay type: functional; details: time 7 day
Staphylococcus aureus [29] = experiment: Antibacterial activity against methicillin-resistant Staphylococcus aureus infected in female C57BL/6 mouse wound model assessed as log reduction in viable bacterial count at 30 mg/kg administered twice on wounds with 6 hrs interval and measured for 7 days; assay type: functional; details: time 7 day
Staphylococcus aureus [30] = experiment: Antibacterial activity against methicillin-resistant Staphylococcus aureus infected in female C57BL/6 mouse wound model assessed as reduction in wound area at 30 mg/kg administered twice on wounds with 6 hrs interval and measured for 7 days; assay type: functional, organism-based; details: time 7.0 day
[31] = Toxicity in female C57BL/6 mouse assessed as erythema in skin at 10 to 30 mg/kg administered daily for 3 days; assay type: organism-based; details: in vivo, 72 h, dose 10-30 mg/kg, time 3 day
[32] = Toxicity in female C57BL/6 mouse assessed as edema in skin at 10 to 30 mg/kg administered daily for 3 days; assay type: organism-based; details: in vivo, 72 h, dose 10-30 mg/kg, time 3 day
Staphylococcus aureus [33] = experiment: Induction of intracellular ROS accumulation in methicillin-resistant Staphylococcus aureus assessed as number of fluorescence cells at 1 times MIC incubated for 6 hrs by DCFH-DA staining based flow cytometry analysis (reference value: 3.88)
Staphylococcus aureus [34] = experiment: Induction of intracellular ROS accumulation in methicillin-resistant Staphylococcus aureus assessed as number of fluorescence cells at 4 times MIC incubated for 6 hrs by DCFH-DA staining based flow cytometry analysis (reference value: 3.88)
Staphylococcus aureus [35] = experiment: Induction of intracellular ROS accumulation in methicillin-resistant Staphylococcus aureus assessed as number of fluorescence cells at 8 times MIC incubated for 6 hrs by DCFH-DA staining based flow cytometry analysis (reference value: 3.88)

With `CC1(C)CC[C@]2(C(=O)NS(=O)(=O)c3ccc(Cl)cc3)CC[C@]3(C)C(=CC[C@@H]4[C@@]5(C)Cc6c([nH]c7c(C(=O)O)cccc67)C(C)(C)[C@@H]5CC[C@]43C)[C@@H]2C1` the MIC (Staphylococcus aureus [1]) was 1 µM (≈ 0.745 µg/mL), the MIC [2] was 2 µM (≈ 1.49 µg/mL) and the MIC (Staphylococcus aureus [3]) was 1 µM (≈ 0.745 µg/mL). The MIC (Staphylococcus aureus [4]) was 2 µM (≈ 1.49 µg/mL), the MBC (Staphylococcus aureus [5]) was 2 µM (≈ 1.49 µg/mL) and the MBC (Staphylococcus aureus [6]) was 2 µM (≈ 1.49 µg/mL). For the same compound, the MBC [7] was 2 µM (≈ 1.49 µg/mL), the MBC (Staphylococcus aureus [8]) was 4 µM (≈ 2.98 µg/mL) and the Activity [9] was “Active”. For the same compound, the Activity (Staphylococcus aureus [10]) was “Active”, the Activity [11] was “Active” and the Activity (Staphylococcus aureus [12]) was “Active”. For the same compound, the “inhibition (INH)” value (Staphylococcus aureus [13]) was 100%, the “inhibition (INH)” value [14] was 100% and the hemolysis at 1 h, 128 times MIC [15] was under 5%. The Activity (Staphylococcus aureus [16]) was “inactive”, the “inhibition (INH)” value (Staphylococcus aureus [17]) was 81% and the Activity (Staphylococcus aureus [18]) was 52%. The Activity (Staphylococcus aureus [19]) was “Dose-Dependent Effect”, the Activity (Staphylococcus aureus [20]) was 55% and the Activity (Staphylococcus aureus [21]) was “Active”. For the same compound, the Activity (Cell membrane [22]) was “Active”, the Activity (Cell membrane [23]) was “Active” and the Activity (Cell membrane [24]) was “Active”. It also gave an Activity (Cell membrane [25]) of 11.6, an Activity (Cell membrane [26]) of 13.5 and an Activity (Cell membrane [27]) of 46.5. For the same compound, the Activity (NIH3T3) was “Non-Toxic”, the Activity (HEK-293T) was “Non-Toxic” and the “log(activity)” value (Staphylococcus aureus [28]) was about 1.6. For the same compound, the “log(activity)” value (Staphylococcus aureus [29]) was 2.5, the Activity (Staphylococcus aureus [30]) was “Active” and the Activity [31] was “Non-Toxic”. The Activity [32] was “Non-Toxic”, the Activity (Staphylococcus aureus [33]) was 1.96 and the Activity (Staphylococcus aureus [34]) was 1.91. For the same compound, the Activity (Staphylococcus aureus [35]) was 1.99.
